The record followed here is patent US10975056B2 (GlaxoSmithKline Intellectual Property Development Limited, priority 2016, dated 2021).

Each structure is given as a SMILES string. Values joined by “and” are separate entries in the source; they are usually repeats but may differ in a detail not shown here. Identical values can stand only once. Counter-ions that a name gives are not always drawn.

DNMT1, sequence (P26358 whole entry, looked up): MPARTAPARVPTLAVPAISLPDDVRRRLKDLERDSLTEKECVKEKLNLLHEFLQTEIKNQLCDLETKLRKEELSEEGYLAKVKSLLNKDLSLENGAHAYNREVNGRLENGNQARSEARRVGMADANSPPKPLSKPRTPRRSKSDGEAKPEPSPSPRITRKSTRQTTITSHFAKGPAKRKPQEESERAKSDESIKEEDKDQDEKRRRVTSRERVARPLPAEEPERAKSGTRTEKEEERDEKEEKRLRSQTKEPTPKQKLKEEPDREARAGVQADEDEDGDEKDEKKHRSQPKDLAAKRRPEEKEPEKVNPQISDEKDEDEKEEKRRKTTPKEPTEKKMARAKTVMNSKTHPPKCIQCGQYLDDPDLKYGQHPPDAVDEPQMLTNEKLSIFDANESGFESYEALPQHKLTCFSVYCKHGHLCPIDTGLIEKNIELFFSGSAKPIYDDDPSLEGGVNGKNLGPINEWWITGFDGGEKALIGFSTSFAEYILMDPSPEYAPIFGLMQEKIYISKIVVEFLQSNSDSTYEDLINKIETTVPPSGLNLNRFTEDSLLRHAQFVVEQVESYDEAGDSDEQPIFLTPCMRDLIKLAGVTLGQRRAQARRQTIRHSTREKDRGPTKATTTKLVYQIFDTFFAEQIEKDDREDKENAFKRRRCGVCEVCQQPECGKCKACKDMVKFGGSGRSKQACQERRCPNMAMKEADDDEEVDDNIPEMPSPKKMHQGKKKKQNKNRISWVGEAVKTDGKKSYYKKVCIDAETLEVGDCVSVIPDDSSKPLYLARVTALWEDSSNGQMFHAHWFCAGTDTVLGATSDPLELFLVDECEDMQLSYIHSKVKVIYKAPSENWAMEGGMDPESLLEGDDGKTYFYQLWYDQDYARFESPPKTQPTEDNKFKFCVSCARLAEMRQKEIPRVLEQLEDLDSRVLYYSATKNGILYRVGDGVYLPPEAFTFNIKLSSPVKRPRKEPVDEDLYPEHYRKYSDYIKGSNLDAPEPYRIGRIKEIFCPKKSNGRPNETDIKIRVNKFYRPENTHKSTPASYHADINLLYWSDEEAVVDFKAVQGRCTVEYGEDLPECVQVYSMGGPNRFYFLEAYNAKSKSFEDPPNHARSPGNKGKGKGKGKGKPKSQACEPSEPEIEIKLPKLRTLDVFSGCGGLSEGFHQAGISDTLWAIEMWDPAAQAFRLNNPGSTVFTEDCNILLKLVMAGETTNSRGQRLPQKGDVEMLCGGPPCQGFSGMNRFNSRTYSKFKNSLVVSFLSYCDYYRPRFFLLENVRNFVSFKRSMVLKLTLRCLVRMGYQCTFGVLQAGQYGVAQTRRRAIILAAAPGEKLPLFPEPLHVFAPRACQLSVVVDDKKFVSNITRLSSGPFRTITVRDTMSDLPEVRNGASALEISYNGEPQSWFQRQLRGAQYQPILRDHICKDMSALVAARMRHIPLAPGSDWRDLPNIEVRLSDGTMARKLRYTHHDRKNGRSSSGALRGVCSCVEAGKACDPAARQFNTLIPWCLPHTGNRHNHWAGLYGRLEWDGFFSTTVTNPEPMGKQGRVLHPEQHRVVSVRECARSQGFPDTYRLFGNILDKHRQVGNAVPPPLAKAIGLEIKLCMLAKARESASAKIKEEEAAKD

The first test deals with DNMT1 (Homo sapiens, UniProt P26358). The test is described as follows: DNMT1 biochemical activity, breaklight assay and/or SPA assay. Conditions: DNMT1 BioChemical (pIC50 category), binned activity in either the breaklight or the SPA assay. On the procedure:
DNMT1 breaklight in vitro assays were conducted in a total volume of 50 μl in a standard 384 well format, using black non-binding surface microplates (Corning 3575). […] Negative control wells used 5 μl of DNMT1 and 5 μl of oligonucleotide but 0 μM SAM. All reagents were made up in 1× assay buffer (20 mM Tris pH 6.8, 25 mM NaCl, 0.5 mM MgCl2, 0.01% Triton X100 and 1 mM DTT). The reaction was incubated at 26° C. for 45 min and then stopped with the addition of 40 μl detection reagent. Detection reagent, made up in 1× Gla assay buffer (20 mM Tris pH 8.0, 80 mM NaCl, 0.75 mM MgCl2, 0.01% Triton X100 and 1 mM DTT) has a final concentration of 100 μM SAH (Sigma #A9384) and 0.0008 units/μl Gla1 restriction endonuclease (Sibenzyme #E494). Following addition of the detection reagent the plate was incubated in the dark at room temperature for 5 hr. Fluorescence intensity was then measured on the PHERAstar FS (BMG Labtech) at Ex 485 nm and Em 520 nm, with a gain of 400 and an integration time of 100 ms.
Biochemical activity of DNMT1 analyzed using SPA technology. Plates (Griener 784075) were pre-stamped with 100 nL/well of compound (11-point, 3-fold serial dilution). […] Low control wells contained 5 μL of buffer instead of enzyme. Following a 40 minute incubation, the reaction was quenched upon the addition of 10 μL of stop mixture containing 1 mM SAM (Sigma A7007) and 2 mg/mL PEI beads (Perkin Elmer RPNQ0098). Plates were sealed, centrifuged for 1 min and then read on a Viewlux (Perkin Elmer) using the 613 nm emission filter/300 s read time following a 30 minute dark adapt. Assay conditions prior to quench consisted of 40 nM DNMT1 (601-1600, produced internally), 100 nM 3H-SAM (American Radiolabeled Chemicals ART 0288), 900 nM SAM (New England BioLabs B9003S) and 200 nM hemi methylated DNA oligonucleotide (synthesized at Integrated DNA Technologies, 5′-[…]-3′) in 50 mM HEPES (pH 8.0), 2 mM MgCl2, 1 mM DTT, 0.01% NP-40 and 0.01% BSA.
Comments • 1. […] Where a field is empty, the compound was not tested in that assay.
With `CCc1c(C#N)c(S[C@@H](C(N)=O)c2ccccc2)nc(N2CC[C@@H](N)[C@@H](O)C2)c1C#N` [Example 514, (R)-2-((6-((3S,4R)-4-amino-3-hydroxypiperidin-1-yl)-3,5-dicyano-4-ethylpyridin-2-yl)thio)-2-phenylacetamide, Trifluoroacetic acid salt], the IC50 is less than 316 nM.

Still in this test, the particulars now being: binned activity in either the breaklight or the SPA assay.
On to `CCc1c(C#N)c(SC(C(N)=O)c2ccccc2)nc(N2CCCN(CC(O)CO)CC2)c1C#N` (stereo not shown) [Example 678, 2-((3,5-dicyano-6-(4-(2,3-dihydroxypropyl)-1,4-diazepan-1-yl)-4-ethylpyridin-2-yl)thio)-2-phenylacetamide], for which the “DNMT1 BioChemical (pIC50 category)” value is “D (Category D: ≥6.5)”.

`CCc1c(C#N)c(SC(C(N)=O)c2ccccc2)nc(N2CCC(NCC3(C)CC3)CC2)c1C#N` (stereo not shown) [Example 473, 2-((3,5-dicyano-4-ethyl-6-(4-(((1-methylcyclopropyl)methyl)amino)piperidin-1-yl)pyridin-2-yl)thio)-2-phenylacetamide]: the “DNMT1 BioChemical (pIC50 category)” value is given as “D (Category D: ≥6.5)”.

As to `CCc1c(C#N)c(S[C@@H](C(N)=O)c2ccccc2)nc(N(C)[C@@H]2CCOC2)c1C#N` [Example 501, (R)-2-(3,5-dicyano-4-ethyl-6-(methyl((R)-tetrahydrofuran-3-yl)amino)pyridin-2-ylthio)-2-phenylacetamide], the “DNMT1 BioChemical (pIC50 category)” value was “D (Category D: ≥6.5)”.

For `COc1c(C#N)c(SC(C(N)=O)c2ccccc2)nc(N2CC[C@H](O)C2)c1C#N` (stereo partly drawn) [Example 696, 2-((3,5-dicyano-6-((S)-3-hydroxypyrrolidin-1-yl)-4-methoxypyridin-2-yl)thio)-2-phenylacetamide], the “DNMT1 BioChemical (pIC50 category)” value is “D (Category D: ≥6.5)”.

For `CCc1c(C#N)c(SC(C(N)=O)c2ccccc2)nc(N2CCC(NCCOC)CC2)c1C#N` (stereo not shown) [Example 553, 2-((3,5-dicyano-4-ethyl-6-(4-((2-methoxyethyl)amino)piperidin-1-yl)pyridin-2-yl)thio)-2-phenylacetamide], the “DNMT1 BioChemical (pIC50 category)” value is recorded as “D (Category D: ≥6.5)”.

`CCc1c(C#N)c(SC(C(N)=O)c2ccc(F)cc2)nc(N2CCC(N(C)C3CCC3)CC2)c1C#N` (stereo not shown) [Example 432, 2-((3,5-Dicyano-6-(4-(cyclobutyl(methyl)amino)piperidin-1-yl)-4-ethylpyridin-2-yl)thio)-2-(4-fluorophenyl)acetamide]: the “DNMT1 BioChemical (pIC50 category)” value is listed as “D (Category D: ≥6.5)”.

As to `CCc1c(C#N)c(SCc2ccc(N(C)S(C)(=O)=O)cc2)nc(N2CC[C@@H](CNC(=O)CN)C2)c1C#N` [Example 672, (S)-2-amino-N-((1-(3,5-dicyano-4-ethyl-6-((4-(N-methylmethylsulfonamido)benzyl)thio)pyridin-2-yl)pyrrolidin-3-yl)methyl)acetamide], the “DNMT1 BioChemical (pIC50 category)” value is on record as “D (Category D: ≥6.5)”.

As to `CCc1c(C#N)c(S[C@H](C(N)=O)c2ccccc2)nc(N(C)[C@@H]2CCOC2)c1C#N` [Example 502, (S)-2-(3,5-dicyano-4-ethyl-6-(methyl((R)-tetrahydrofuran-3-yl)amino)pyridin-2-ylthio)-2-phenylacetamide], the “DNMT1 BioChemical (pIC50 category)” value was “D (Category D: ≥6.5)”.

Regarding `CCc1c(C#N)c(SC(C(N)=O)c2ccccc2)nc(N2CCC(C3CCN(CCO)CC3)CC2)c1C#N` (stereo not shown) [Example 60, 2-((3,5-dicyano-4-ethyl-6-(1′-(2-hydroxyethyl)-[4,4′-bipiperidin]-1-yl)pyridin-2-yl)thio)-2-phenylacetamide], the “DNMT1 BioChemical (pIC50 category)” value was “D (Category D: ≥6.5)”.

Staying with this test, now noted: binned activity in either the breaklight or the SPA assay; read-out: DNMT1 BioChemical (pIC50 category) (converted).
`CCc1c(C#N)c(SC(C(N)=O)c2ccccc2)nc(N2CCN(C(=O)c3ccccc3)CC2)c1C#N` (stereo not shown) [Example 131, 2-((6-(4-Benzoylpiperazin-1-yl)-3,5-dicyano-4-ethylpyridin-2-yl)thio)-2-phenylacetamide]: the IC50 was 316 to 1000 nM.

As to `CCc1c(C#N)c(S[C@@H](C(N)=O)c2ccccc2)nc(N(C)CCOP(=O)(O)O)c1C#N` [Example 421, (R)-2-((6-((2-amino-2-oxo-1-phenylethyl)thio)-3,5-dicyano-4-ethylpyridin-2-yl(methyl)amino)ethyldihydroden phosphate], the IC50 is 1000 to 31600 nM.

`CCc1c(C#N)c(SC(C(N)=O)c2ccccc2)nc(N2CCN(CCN3CCCC3)CC2)c1C#N` (stereo not shown) [Example 304, 2-((3,5-Dicyano-4-ethyl-6-(4-(2-(pyrrolidin-1-yl)ethyl)piperazin-1-yl)pyridin-2-yl)thio)-2-phenylacetamide]: the IC50 was 316 to 1000 nM.

In the case of `N#Cc1c(SC(C(N)=O)c2ccccc2)nc(N2CCCN(CCO)CC2)c(C#N)c1CC(F)(F)F` (stereo not shown) [Example 113, 2-({3,5-Dicyano-6-[4-(2-hydroxyethyl)-1,4-diazepan-1-yl]-4-(2,2,2-trifluoroethyl)pyridin-2-yl}sulfanyl)-2-phenylacetamide], the IC50 is 316 to 1000 nM.

As to `CCc1c(C#N)c(S[C@H](C(N)=O)c2ccccc2)nc(N2CCC(C)(N)CC2)c1C#N` (single isomer, unassigned) [Example 617, 2-((6-(4-amino-4-methylpiperidin-1-yl)-3,5-dicyano-4-ethylpyridin-2-yl)thio)-2-phenylacetamide], the IC50 was 1000 to 31600 nM.

Regarding `CCc1c(C#N)c(SC(C(N)=O)c2ccccc2)nc(N2CC[C@@]3(CCCN3S(C)(=O)=O)[C@@H](O)C2)c1C#N` (stereo partly drawn) [Example 132, 2-((3,5-Dicyano-4-ethyl-6-((5S,6S)-6-hydroxy-1-(methylsulfonyl)-1,8-diazaspiro[4.5]decan-8-yl)pyridin-2-yl)thio)-2-phenylacetamide], the IC50 is 316 to 1000 nM.

The test is the same for the next values; noted with them: breaklight assay and/or SPA assay, repeated experimental runs; read-out: average pIC50 against DNMT1 (converted).
For `CCc1c(C#N)c(SC(C(N)=O)c2ccccc2)nc(N2CCN(C(=O)c3ccccc3)CC2)c1C#N` (stereo not shown) [Example 131, 2-((6-(4-Benzoylpiperazin-1-yl)-3,5-dicyano-4-ethylpyridin-2-yl)thio)-2-phenylacetamide], the IC50 is 316 to 1000 nM.

For `CCc1c(C#N)c(S[C@H](C(N)=O)c2ccccc2)nc(N2CCC(C)(N)CC2)c1C#N` (single isomer, unassigned) [Example 617, 2-((6-(4-amino-4-methylpiperidin-1-yl)-3,5-dicyano-4-ethylpyridin-2-yl)thio)-2-phenylacetamide], the IC50 was ≥ 1000 nM and 2510 nM.

`CCc1c(C#N)c(SC(C(N)=O)c2ccccc2)nc(N2CC[C@@]3(CCCN3S(C)(=O)=O)[C@@H](O)C2)c1C#N` (stereo partly drawn) [Example 132, 2-((3,5-Dicyano-4-ethyl-6-((5S,6S)-6-hydroxy-1-(methylsulfonyl)-1,8-diazaspiro[4.5]decan-8-yl)pyridin-2-yl)thio)-2-phenylacetamide]: the IC50 was 316 to 1000 nM.
